Measured values taken from patent US20180271863A1, “TARGETING P2 PURINERGIC RECEPTORS TO TREAT HEPATOCELLULAR CARCINOMA (HCC)” (Baylor College of Medicine, priority 2015, published 2018).

Assays:
Assay type in all cases: cell-based, human
Huh7 cells [1] = test: Western blotting of cyclin and CDK proteins in Huh7 cells
Protocol: (§1) Normal human primary hepatocytes isolated from healthy adults (no known history of HCC) in suspension or freshly-frozen prior to shipment (Cryoport Systems, CA) were purchased from Triangle Research Labs, NC. Fresh hepatocytes were plated on collagen-coated tissue culture plates or glass coverslips in Williams E complete media with additives (10% fetal bovine serum, 2 mM glutamine, […] insulin, 4 ng/ml glucagon, […] transferrin, 2.5 ng/ml sodium selenite, 10,000 U/ml penicillin, […] streptomycin, 50 g/ml gentamycin) for 3 h to ensure hepatocyte adherence to plates. Subsequently, hepatocytes were maintained in Williams E minimal media free from serum and growth factors for 24 h prior to treatment. Human hepatocellular carcinoma derived Huh7, and Hep3B, were cultured in Minimum Essential Medium Eagle (MEM); SNU-387 was cultured in Roswell Park Memorial Institute (RPMI) medium and PLC/PRF/5 cultured in Dulbecco's Modified Eagle's medium (DMEM). All maintenance culture media were supplemented with 10% fetal bovine serum (FBS), L-Glutamine (2 mM), penicillin (100 units/ml) and streptomycin ([…]) at 37° C. and 5% CO2. Cells were maintained in serum free media (containing 2 mM L-Glutamine, 100 units/ml penicillin and ([…])) streptomycin for 24 h prior to treatment.
Total protein extracts were obtained by homogenizing cells in total lysis buffer (50 mM Tris-HCl, pH 7.5, 0.5 M NaCl, 2 mM EGTA, 2 mM EDTA, 1.0% Triton X-100, 0.25% Deoxycholate, 1 m/ml pepstatin, 1.0 m/ml leupeptin, 1.0 m/ml aprotinin, 1.0 mM phenylmethylsulfonyl fluoride, 1.0 mM Dithiothreitol, 2.0 mM activated Na3VO4, and 2.0 mM NaF) and centrifuging at 14,000 rpm for 10 min (4° C.). Equal amounts of total proteins as determined by BCA protein Assay (Pierce, Rockford, Ill.) were analyzed by Western blotting. Blots were probed with antibody specific for a-tubulin or GAPDH to ensure equal loading of proteins in each lane.

Huh7 cells [2] = test: BrdU incorporation (proliferation) in Huh7 cells; conditions: nucleotide 100 μM
Protocol: To determine whether P2 purinergic receptor activation influences HCC cell proliferation, BrdU incorporation was assessed in HCC cells maintained in SFM for 24 hours and treated with ATP for 24 hours. ATP treatment alone was sufficient to induce proliferation in each of these cell lines (Huh7, 34%; Hep3B, 46%; SNU-387, 47% and PLC/PRF/5, 24%), identifying nucleotides as liver cancer cell mitogens (FIG. 7A).
Extracellular ATP can be hydrolyzed to ADP and adenosine by ectonucleotidases at the plasma membrane. Therefore, Applicants tested the effects of ATPγS (non-hydrolyzable analog of ATP) or ADP (break down product of ATP) (100 μM) on Huh7 cell proliferation. ATPγS treatment alone was sufficient to induce BrdU incorporation as early as 12 hours (42%); maintained at 18 h (30%) and 24 h (29%) in Huh7 cells (FIG. 8). ADP was also able to independently increase the number of BrdU positive nuclei (12 h, 30%; 18 h, 35%; 24 h, 37%) (FIG. 8). Furthermore, ATP treatment (18 h) increased cell proliferation and viability in all four cell lines, as determined by MTT assay (Huh7, 65%; Hep3B, 81%; SNU-387, 90% and PLC/PRF/5, 43%) (FIG. 7B).
as §1
Formalin-fixed and paraffin embedded liver sections from HCC patients were analyzed by immunohistochemistry with anti-P2X3 antibody (Abcam, Cambridge, Mass.). HCC cells were grown on glass coverslips; BrdU (10 μM, Roche, Indianapolis, Ind.) was added to culture media for 1 h prior to fixation (cold acetone:methanol, 1:1) and stained using anti-BrdU antibody (DAKO, Carpinteria, Calif.) and DAB Peroxidase Substrate Kit (Vector Labs, Burlingame, Calif.), according to manufacturer's instructions. Counterstaining was done with hematoxylin. BrdU positive cells were counted and expressed as a percentage of the total number of cells in ten randomly selected high-power fields (20×) per coverslips.

Huh7 cells [3] = test: qRT-PCR of cyclin mRNA in Huh7 cells
Protocol: Normal human primary hepatocytes isolated from healthy adults (no known history of HCC) in suspension or freshly-frozen prior to shipment (Cryoport Systems, CA) were purchased from Triangle Research Labs, NC. Fresh hepatocytes were plated on collagen-coated tissue culture plates or glass coverslips in Williams E complete media with additives (10% fetal bovine serum, 2 mM glutamine, […] insulin, 4 ng/ml glucagon, […] transferrin, 2.5 ng/ml sodium selenite, 10,000 U/ml penicillin, […] streptomycin, 50 g/ml gentamycin) for 3 h to ensure hepatocyte adherence to plates. Subsequently, hepatocytes were maintained in Williams E minimal media free from serum and growth factors for 24 h prior to treatment. Human hepatocellular carcinoma derived Huh7, and Hep3B, were cultured in Minimum Essential Medium Eagle (MEM); SNU-387 was cultured in Roswell Park Memorial Institute (RPMI) medium and PLC/PRF/5 cultured in Dulbecco's Modified Eagle's medium (DMEM). All maintenance culture media were supplemented with 10% fetal bovine serum (FBS), L-Glutamine (2 mM), penicillin (100 units/ml) and streptomycin ([…]) at 37° C. and 5% CO2. Cells were maintained in serum free media (containing 2 mM L-Glutamine, 100 units/ml penicillin and ([…])) streptomycin for 24 h prior to treatment. Total RNA was isolated from human livers or cells using Trizol Reagent according to manufacturer's instructions (Invitrogen, NY). Complementary DNA (cDNA) synthesis was performed by reverse transcription of total RNA (2 μg) with high capacity cDNA reverse transcription kit (Applied Biosystems, Foster city, CA). The cDNA product was amplified by qRT-PCR in Step One Plus Real-Time PCR system using SYBR Green PCR Master Mix (Applied Biosystems, Grand Island, N.Y.). Quantitative expression values were determined using the […] as specified by manufacturers using GAPDH as a control.

Huh7 cells [4] = test: Western blotting for hippo pathway phosphorylation (Mst1/2, LATS, Yap) in Huh7 cells
Protocol: Total protein extracts were obtained by homogenizing cells in total lysis buffer and analyzed by Western blotting as described recently (Oncotarget 2015; 6:41162-41179). […] Therefore, Applicants performed in vitro studies to test whether activation of P2 purinergic receptors may affect the hippo pathway and its downstream effectors. Huh7 cells—human derived hepatocellular carcinoma cells—maintained in serum free media for 24 hours—were treated with P2 purinergic receptor agonists. […] ADP treatment alone was also sufficient to induce LATs phosphorylation (2 h-1.7 fold, 4 h-1.5 fold) (FIG. 20B). […] Hippo kinases Mst1/2 and Lats1/2 work through a phosphorylation cascade to phosphorylate Yap, thereby retaining Yap in the cytoplasm. In spite of nucleotide-mediated Mst1/2 and Lats phosphorylation, ATP, ADP and ATPγS treatment was individually insufficient to induce Yap phosphorylation. […] Similarly, ATP treatment alone increased nuclear YAP protein expression (1.7 fold) (FIG. 20D).

Huh7 cells [5] = test: qRT-PCR of YAP target genes in Huh7 cells
Description: Total RNA was isolated from human livers or cells and was amplified by qRT-PCR as described recently (Oncotarget 2015; 6:41162-41179). Next, Applicants tested whether extracellular nucleotide treatment may have an effect on YAP target genes important in hepatocellular carcinoma. […] Moreover, P2X3 antagonist (AF-353) pretreatment attenuated ATP mediated induction of survivin (FIG. 20G).

## CSc1nc(N)c2ncn([C@@H]3O[C@H](COP(=O)(O)OP(=O)(O)OP(=O)(O)O)[C@@H](O)[C@H]3O)c2n1 [2-MeSATP]
Huh7 cells [1]; 2MeSATP 50 μM alone, 24 h
  cyclin D3 expression: 1.9 fold

## O=C(O)c1cc(C(=O)O)c(C(=O)N(Cc2cccc(Oc3ccccc3)c2)[C@H]2CCCc3ccccc32)cc1C(=O)O [A317491]
Huh7 cells [1]; A317491 30 μM pre-treatment, ATP 24 h
  effect on ATP induced cyclin D3 expression: attenuated

## Nc1ncnc2c1ncn2[C@@H]1O[C@H](COP(=O)(O)OP(=O)(O)O)[C@@H](O)[C@H]1O [ADP]
Huh7 cells [2]; 12 h
  BrdU incorporation / BrdU positive nuclei: 30%
Huh7 cells [2]; 18 h
  BrdU incorporation / BrdU positive nuclei: 35%
Huh7 cells [2]; 24 h
  BrdU incorporation / BrdU positive nuclei: 37%
Huh7 cells [3]; 12 h treatment
  Cyclin D3 mRNA expression vs untreated cells: 2.7 fold
Huh7 cells [3]; 36 h treatment
  Cyclin D3 mRNA expression vs untreated cells: 2.8 fold
Huh7 cells [4]; Huh7, 12 h treatment
  Yap phosphorylation: 0.2 fold
  induction of Yap phosphorylation: insufficient
Huh7 cells [5]; 24 h treatment
  AREG gene expression: 2.6 fold
  CTGF gene expression: 2.5 fold
  Sox9 gene expression: 1.4 fold
  cyclin E gene expression: 2.4 fold
  survivin gene expression: 1.4 fold

## Cc1nc(N=Nc2ccc(S(=O)(=O)O)cc2S(=O)(=O)O)c(COP(=O)(O)O)c(C=O)c1O [PPADS]
Huh7 cells [5]; ATPγS ± PPADS, 24 h
  effect on ATPγS-induced AREG and CTGF expression: completely attenuated

## Cc1ccc(C(=O)Nc2ccc(S(=O)(=O)O)c3cc(S(=O)(=O)O)cc(S(=O)(=O)O)c23)cc1NC(=O)c1cccc(NC(=O)Nc2cccc(C(=O)Nc3cc(C(=O)Nc4ccc(S(=O)(=O)O)c5cc(S(=O)(=O)O)cc(S(=O)(=O)O)c45)ccc3C)c2)c1 [Suramin]
Huh7 cells [3]; Suramin pre-treatment (30 minutes) before 24 hours nucleotide treatment
  effect on nucleotide induction of cyclin D3 mRNA: dose dependent attenuation
Huh7 cells [3]; Suramin treatment alone
  effect on baseline cyclin D3 expression: reduced

## O=c1ccn([C@@H]2O[C@H](COP(=O)(O)OP(=O)(O)OP(=O)(O)O)[C@@H](O)[C@H]2O)c(=O)[nH]1 [UTP]
Huh7 cells [4]; Huh7, serum free 24 hours, as early as 5 minutes, sustained at 4 hours
  Mst1/2 phosphorylation: significantly induced
